Experimental data published in ChEMBL document CHEMBL5233281, “Design, synthesis and biological evaluation of novel 1,3,4,9-tetrahydropyrano[3,4-b]indoles as potential treatment of triple negative breast cancer by suppressing PI3K/AKT/mTOR pathway” (Bioorg Med Chem, 2021).
Active and inactive are the calls of the source. No cut-off for these calls is given here.

Columns and labels:
MDA-MB-231 [1] = assay: Induction of apoptosis in human MDA-MB-231 cells assessed as decrease in Bcl-2 protein expression measured after 48 hrs by western blot analysis; format: functional, cell-based; conditions: dose 1-4 µM
MDA-MB-231 [2] = assay: Induction of apoptosis in human MDA-MB-231 cells assessed as increase in apoptotic cells at 4 uM incubated for 48 hrs by AnnexinV-FITC/PI staining based flow cytometry (reference value: 5.24%); format: functional
[3] = Inhibition of PI3K/Akt/mTOR signaling in human MDA-MB-231 cells assessed as reduction in mTOR phosphorylation at Ser2481 residue incubated for 48 hrs by western blot analysis; format: cell-based; conditions: dose 1-4 µM
MDA-MB-231 [4] = assay: Induction of cell cycle arrest in human MDA-MB-231 cells assessed as downregulation of Cyclin D1 protein expression at 1 to 4 uM incubated for 48 hrs by western blot analysis; format: functional, cell-based; conditions: dose 1-4 µM
MDA-MB-231 [5] = assay: Induction of apoptosis in human MDA-MB-231 cells assessed as increase in cleaved caspase-8 protein expression at 1 to 4 uM incubated for 48 hrs by western blot analysis; format: functional, cell-based; conditions: dose 1-4 µM
MDA-MB-231 [6] = assay: Induction of reactive oxygen species generation in human MDA-MB-231 cells incubated for 24 hrs by DCFH-DA staining based flow cytometry; format: functional, cell-based; conditions: dose 1-4 µM
MDA-MB-231 [7] = assay: Induction of apoptosis in human MDA-MB-231 cells assessed as increase in ratio of Bax to Bcl-2 protein expression measured after 48 hrs by western blot analysis; format: functional, cell-based; conditions: dose 1-4 µM
MDA-MB-231 [8] = assay: Downregulation of Akt protein expression in human MDA-MB-231 cells incubated for 48 hrs by western blot analysis; format: functional, cell-based; conditions: dose 1-4 µM
MDA-MB-231 [9] = assay: Induction of apoptosis in human MDA-MB-231 cells assessed as increase in apoptotic cells at 1 uM incubated for 48 hrs by AnnexinV-FITC/PI staining based flow cytometry (reference value: 5.24%); format: functional
MDA-MB-231 [10] = assay: Induction of apoptosis in human MDA-MB-231 cells assessed as increase in apoptotic cells at 2 uM incubated for 48 hrs by AnnexinV-FITC/PI staining based flow cytometry (reference value: 5.24%); format: functional
[11] = Inhibition of PI3K/Akt/mTOR signaling in human MDA-MB-231 cells assessed as upregulation of PTEN expression incubated for 48 hrs by western blot analysis; format: cell-based; conditions: dose 1-4 µM
MDA-MB-231 [12] = assay: Downregulation of mTOR protein expression in human MDA-MB-231 cells incubated for 48 hrs by western blot analysis; format: functional, cell-based; conditions: dose 1-4 µM
MDA-MB-231 [13] = assay: Induction of apoptosis in human MDA-MB-231 cells assessed as increase in cleaved caspase-9 protein expression at 1 to 4 uM incubated for 48 hrs by western blot analysis; format: functional, cell-based; conditions: dose 1-4 µM
MDA-MB-231 [14] = assay: Downregulation of Akt protein expression in human MDA-MB-231 cells at 2 uM incubated for 72 hrs in presence of IGF-1 by western blot analysis; format: functional, cell-based

Fc1cc(F)cc(C2OCCc3c2[nH]c2ccccc32)c1 (centres undefined)
Activity (MDA-MB-231 [1]): Dose-Dependent Effect
Activity (MDA-MB-231 [2]): 37.86%
inhibition [3]: Dose-Dependent Effect
Activity (MDA-MB-231 [4]): Active
Activity (MDA-MB-231 [5]): Active
Activity (MDA-MB-231 [6]): Dose-Dependent Effect
Activity (MDA-MB-231 [7]): Dose-Dependent Effect
inhibition (MDA-MB-231 [8]): Dose-Dependent Effect
Activity (MDA-MB-231 [9]): 16.77%
Activity (MDA-MB-231 [10]): 22.17%
inhibition [11]: Dose-Dependent Effect
inhibition (MDA-MB-231 [12]): Dose-Dependent Effect
Activity (MDA-MB-231 [13]): Active
inhibition (MDA-MB-231 [14]): inactive
